Reference: PMC4216499 (The Indian Journal of Medical Research, 2014)
“And” between values parts separate entries of the source, which are not always exact repeats. Equal entries are not always repeated.

How the values were obtained:
A/H3N2 viruses = test system: A/H3N2 viruses; set-up: species or system influenza A/H3N2 virus
Type B influenza = test system: Type B influenza; set-up: species or system influenza B virus
A/H1N1 viruses = test system: A/H1N1 viruses; set-up: species or system influenza A/H1N1 virus
pandemic (H1N1) viruses = test system: pandemic (H1N1) viruses; set-up: species or system pandemic influenza A (H1N1) virus
[1] = test system: pandemic (H1N1) 2009 viruses; conditions: cited from earlier work
influenza A viruses = conditions: cited from earlier work

Structure (SMILES)	oseltamivir-resistance conferring mutations (A/H3N2 viruses)	oseltamivir susceptibility by NA gene markers (Type B influenza)	Total resistant samples/Total samples (A/H1N1 viruses)	oseltamivir resistant with H274Y mutation (A/H1N1 viruses)	oseltamivir susceptibility by H274Y allelic discrimination (pandemic (H1N1) viruses)	oseltamivir-resistant viruses detected [1]	Amantadine resistance (influenza A viruses)
CCOC(=O)C1=C[C@@H](OC(CC)CC)[C@H](NC(C)=O)[C@@H](N)C1 [oseltamivir]	none of the isolates had any of the reported oseltamivir-resistance conferring mutations	all type B isolates were sensitive	35/38 and 15/23	82%	all were sensitive	less than 1 per cent	
NC12CC3CC(CC(C3)C1)C2 [amantadine]							33-100%
